The text below walks through data of patent US6531610B1 (Abbott Laboratories, priority 1989, dated 2003).

The subject of the first assay is HIV-13B in MT4 cells. In words: Antiviral activity: inhibition of the cytopathic effect of HIV in MT4 cells. It counts as cell-based, HIV-1. The conditions noted are these: Human immunodeficiency virus 1, MT4.
By IC50 is commonly meant the concentration that inhibits the measured activity by half. `CC(C)CN(Cc1csc(C(C)C)n1)C(=O)N[C@@H](C)C(=O)N[C@@H](Cc1ccccc1)C[C@H](O)[C@H](Cc1ccccc1)NC(=O)OCc1cncs1` [Example 55]: the IC50 lay within 140 to 220 nM.

As to `CCCN(Cc1csc(C(C)C)n1)C(=O)N[C@@H](C)C(=O)N[C@@H](Cc1ccccc1)C[C@H](O)[C@H](Cc1ccccc1)NC(=O)OCc1cncs1` [Example 54], the half-inhibitory concentration (IC50) was in the range of 110 to 170 nM.

The assay is the same for the next values; noted with them: Human immunodeficiency virus 1, MT4; read-out: IC50.
Regarding `CCC(CC)c1nc(CN(C)C(=O)N[C@H](C(=O)N[C@@H](Cc2ccccc2)C[C@H](O)[C@H](Cc2ccccc2)NC(=O)OCc2cncs2)C(C)C)cs1` [Example 44, (2S,3S,5S)-5-(N-(N-((N-Methyl-N-((2-(3-pentyl)-4-thiazolyl)methyl)amino)carbonyl)valinyl)amino)-2-(N-((5-thiazolyl)methoxycarbonyl)amino)-1,6-diphenyl-3-hydroxyhexane], the half-inhibitory concentration (IC50) fell in the range of 120 to 160 nM.

Regarding `CC(C)[C@H](NC(=O)OCc1csc(N(C)C)n1)C(=O)N[C@@H](Cc1ccccc1)[C@@H](O)C[C@H](Cc1ccccc1)NC(=O)OCc1cncs1` [Example 10, (2S,3S,5S)-2-(N-(N-((2-(N,N-Dimethylamino)-4-thiazolyl)methoxycarbonyl)valinyl)amino)-5-(N-((5-thiazolyl)methoxycarbonyl)amino)-1,6-diphenyl-3-hydroxyhexane], the 50% inhibitory concentration (IC50) is 54 to 71 nM.

Consider `CC(C)c1nc(CN(C)C(=O)N[C@H](C(=O)N[C@@H](Cc2ccccc2)C[C@H](O)[C@H](Cc2ccccc2)NC(=O)OCc2cncs2)C(C)C)co1` [Example 18, (2S,3S,5S)-5-(N-(N-((N-Methyl-N-((2-isopropyl-4-oxazolyl)methyl)amino)carbonyl)valinyl)amino)-2-(N-((5-thiazolyl)methoxycarbonyl)amino)-1,6-diphenyl-3-hydroxyhexane], for which the half-inhibitory concentration (IC50) was 39 to 46 nM.

On to `CC(C)c1nc(CN(C)C(=O)N[C@@H](C)C(=O)N[C@@H](Cc2ccccc2)C[C@H](O)[C@H](Cc2ccccc2)NC(=O)OCc2ccno2)co1` [Example 57, (2S,3S,5S)-5-(N-(N-((N-Methyl-N-((2-isopropyl-4-oxazolyl)methyl)amino)carbonyl)-L-alaninyl)amino)-2-(N-((5-isoxazolyl)methoxycarbonyl)amino)-1,6-diphenyl-3-hydroxyhexane], for which the IC50 lay in the range of 35 to 48 nM.

Regarding `CC(C)[C@H](NC(=O)OCc1csc(N2CCOCC2)n1)C(=O)N[C@@H](Cc1ccccc1)[C@@H](O)C[C@H](Cc1ccccc1)NC(=O)OCc1cncs1` [Example 12, (2S,3S,5S)-2-(N-(N-((2-(4-Morpholinyl)-4-thiazolyl)-methoxycarbonyl)valinyl)amino)-5-(N-((5-thiazolyl)-methoxycarbonyl)amino)-1,6-diphenyl-3-hydroxyhexane], the half-inhibitory concentration (IC50) was 53 to 106 nM.

Consider `CC(C)c1nc(CN(C)C(=O)N[C@H](C(=O)N[C@@H](Cc2ccccc2)C[C@H](O)[C@H](Cc2ccccc2)NC(=O)OCc2cncs2)C(C)C)cs1` [Example 1, (2S,3S,5S)-5-(N-(N-((N-Methyl-N-((2-isopropyl-4-thiazolyl)methyl)amino)carbonyl)valinyl)amino)-2-(N-((5-thiazolyl)methoxycarbonyl)amino)-1,6-diphenyl-3-hydroxyhexane], for which the 50% inhibitory concentration (IC50) is 25 to 40 nM.

With `CCN(Cc1csc(C(C)C)n1)C(=O)N[C@H](C(=O)N[C@@H](Cc1ccccc1)C[C@H](O)[C@H](Cc1ccccc1)NC(=O)OCc1cncs1)C(C)C` [Example 4, (2S,3S,5S)-5-(N-(N-((N-Ethyl-N-((2-isopropyl-4-thiazolyl)methyl)amino)carbonyl)valinyl)amino)-2-(N-((5-thiazolyl)methoxycarbonyl)amino)-1,6-diphenyl-3-hydroxyhexane], the IC50 fell in the range of 170 to 320 nM.

Take `Cc1ncc(COC(=O)N[C@@H](Cc2ccccc2)[C@@H](O)C[C@H](Cc2ccccc2)NC(=O)[C@@H](NC(=O)N(C)Cc2csc(C(C)C)n2)C(C)C)s1` [Example 28, (2S,3S,5S)-5-(N-(N-((N-Methyl-N-((2-isopropyl-4-thiazolyl)methyl)amino)carbonyl)valinyl)amino)-2-(N-((2-methyl-5-thiazolyl)methoxycarbonyl)amino)-1,6-diphenyl-3-hydroxyhexane]: the IC50 was in the range of 110 to 120 nM.

Take `CC(C)c1nc(CN(C)C(=O)N[C@@H](C)C(=O)N[C@@H](Cc2ccccc2)C[C@H](O)[C@H](Cc2ccccc2)NC(=O)OCc2cncs2)co1` [Example 56, (2S,3S,5S)-5-(N-(N-((N-Methyl-N-((2-isopropyl-4-oxazolyl)methyl)amino)carbonyl)-L-alaninyl)amino)-2-(N-((5-thiazolyl)methoxycarbonyl)amino)-1,6-diphenyl-3-hydroxyhexane]: the IC50 is 50 to 67 nM.

Turning to `CC(C)c1nc(CCN(C)C(=O)N[C@H](C(=O)N[C@@H](Cc2ccccc2)C[C@H](O)[C@H](Cc2ccccc2)NC(=O)OCc2cncs2)C(C)C)cs1` [Example 61, (2S,3S,5S)-5-(N-(N-((N-Methyl-N-(2-(2-isopropyl-4-thiazolyl)ethyl)amino)carbonyl)valinyl)amino)-2-(N-((5-thiazolyl)methoxycarbonyl)amino)-1,6-diphenyl-3-hydroxyhexane], the half-maximal inhibitory concentration (IC50) lay in the range of 150 to 220 nM.

Consider `CC(C)c1nc(COC(=O)N[C@@H](C)C(=O)N[C@@H](Cc2ccccc2)C[C@H](O)[C@H](Cc2ccccc2)NC(=O)OCc2cncs2)cs1` [Example 7, (2S,3S,5S)-5-(N-(N-((2-Isopropyl-4-thiazolyl)methoxycarbonyl)alaninyl)amino)-2-(N-((5-thiazolyl)methoxycarbonyl)amino)-1,6-diphenyl-3-hydroxyhexane], for which the IC50 lay in the range of 76 to 131 nM.

Consider `CC(C)c1nc(CCOC(=O)N[C@H](C(=O)N[C@@H](Cc2ccccc2)C[C@H](O)[C@H](Cc2ccccc2)NC(=O)OCc2cncs2)C(C)C)cs1` [Example 47, (2S,3S,5S)-5-(N-(N-((2-(2-Isopropyl-4-thiazolyl)ethoxy)carbonyl)valinyl)amino)-2-(N-((5-thiazolyl)methoxycarbonyl)amino)-1,6-diphenyl-3-hydroxyhexane], for which the IC50 is 9 to 24 nM.

On to `CC(C)c1nc(COC(=O)N[C@H](C(=O)N[C@@H](Cc2ccccc2)C[C@H](O)[C@H](Cc2ccccc2)NC(=O)OCc2cncs2)C(C)C)cs1` [Example 5, (2S,3S,5S)-5-(N-(N-((2-Isopropyl-4-thiazolyl)methoxycarbonyl)valinyl)amino)-2-(N-((5-thiazolyl)methoxycarbonyl)amino)-1,6-diphenyl-3-hydroxyhexane], for which the half-maximal inhibitory concentration (IC50) lay within 3 to 9 nM.

In the case of `CC(C)c1nc(CN(C)C(=O)N[C@H](C(=O)N[C@@H](Cc2ccccc2)C[C@H](O)[C@H](Cc2ccccc2)NC(=O)OCc2ccno2)C(C)C)cs1` [Example 26, (2S,3S,5S)-5-(N-(N-((N-Methyl-N-((2-isopropyl-4-thiazolyl)methyl)amino)carbonyl)valinyl)amino)-2-(N-((5-isoxazolyl)methoxycarbonyl)amino)-1,6-diphenyl-3-hydroxyhexane], the IC50 lay within 7 to 11 nM.

Regarding `CC(C)c1nc(CN(C)C(=O)N[C@H](C(=O)N[C@@H](Cc2ccccc2)C[C@H](O)[C@H](Cc2ccccc2)NC(=O)OCc2ccno2)C(C)C)co1` [Example 27, (2S,3S,5S)-5-(N-(N-((N-Methyl-N-((2-isopropyl-4-oxazolyl)methyl)amino)carbonyl)valinyl)amino)-2-(N-((5-isoxazolyl)methoxycarbonyl)amino)-1,6-diphenyl-3-hydroxyhexane], the IC50 was 11 to 12 nM.

Consider `CC(C)c1nc(COC(=O)N[C@H](C(=O)N[C@@H](Cc2ccccc2)[C@@H](O)C[C@H](Cc2ccccc2)NC(=O)OCc2cncs2)C(C)C)cs1` [Example 6, (2S,3S,5S)-2-(N-(N-((2-Isopropyl-4-thiazolyl)methoxycarbonyl)valinyl)amino)-5-(N-((5-thiazolyl)methoxycarbonyl)amino)-1,6-diphenyl-3-hydroxyhexane], for which the IC50 fell in the range of 6 to 14 nM.

Take `CC(C)[C@H](NC(=O)OCc1csc(N2CCOCC2)n1)C(=O)N[C@@H](Cc1ccccc1)C[C@H](O)[C@H](Cc1ccccc1)NC(=O)OCc1cncs1` [Example 11, (2S,3S,5S)-5-(N-(N-((2-(4-Morpholinyl)-4-thiazolyl)methoxycarbonyl)valinyl)amino)-2-(N-((5-thiazolyl)methoxycarbonyl)amino)-1,6-diphenyl-3-hydroxyhexane]: the IC50 was 17 to 132 nM.

For `Cc1ncc(COC(=O)N[C@@H](Cc2ccccc2)C[C@H](O)[C@H](Cc2ccccc2)NC(=O)[C@@H](NC(=O)N(C)Cc2csc(C(C)C)n2)C(C)C)s1` [Example 39, (2S,3S,5S)-2-(N-(N-((N-Methyl-N-((2-isopropyl-4-thiazolyl)methyl)amino)carbonyl)valinyl)amino)-5-(N-((2-methyl-5-thiazolyl)methoxycarbonyl)amino)-1,6-diphenyl-3-hydroxyhexane], the IC50 fell in the range of 73 to 77 nM.

Regarding `Cc1nc(CN(C)C(=O)N[C@H](C(=O)N[C@@H](Cc2ccccc2)C[C@H](O)[C@H](Cc2ccccc2)NC(=O)OCc2cncs2)C(C)C)co1` [Example 42, (2S,3S,5S)-5-(N-(N-((N-Methyl-N-((2-methyl-4-oxazolyl)methyl)amino)carbonyl)valinyl)amino)-2-(N-((5-thiazolyl)methoxycarbonyl)amino)-1,6-diphenyl-3-hydroxyhexane], the concentration for half-maximal inhibition (IC50) is 73 to 80 nM.

Staying with this assay, now noted: concentration giving 50% inhibition of the cytopathic effect of HIV; HIV-13B in MT4 cells; read-out: IC50.
Regarding `CC(C)[C@H](NC(=O)N(C)Cc1csc(C2CC2)n1)C(=O)N[C@@H](Cc1ccccc1)C[C@H](O)[C@H](Cc1ccccc1)NC(=O)OCc1cncs1` [Example 51], the IC50 was in the range of 45 to 49 nM.

As to `CC(C)c1nc(CN(C)C(=O)N[C@H](C(=O)N[C@@H](Cc2ccccc2)C[C@H](O)[C@H](Cc2ccccc2)NC(=O)OCc2cnco2)C(C)C)cs1` [Example 20], the IC50 fell in the range of 11 to 14 nM.

With `CC(C)c1nc(CN(C)C(=O)N[C@@H](C)C(=O)N[C@@H](Cc2ccccc2)C[C@H](O)[C@H](Cc2ccccc2)NC(=O)OCc2cncs2)cs1` [Example 3, (2S.3S.5S)-5-(N-(N-((N-Methyl-N-((2-isopropyl-4-thiazolyl)methyl)amino)carbonyl)alaninyl)amino)-2-(N-((5-thiazolyl)methoxycarbonyl)amino)-1,6-diphenyl-3-hydroxyhexane], the half-inhibitory concentration (IC50) was 41 to 75 nM.
